Test systems include 786-0; CAKI-1; SF-539; SN12C; SNB-78; LOX IMVI; MOLT-4; Malme-3M; SF-268; NCI-H226; TK-10; HL-60; EKVX; SK-MEL-2; A549; IGROV-1; RPMI-8226; Hs-578T; MDA-N; NCI/ADR-RES.
Common to all, as to test: NCI tumour cell line growth inhibition, 48 h

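Compound exposure: 48 hours, 5 concentrations, 96-well plates. The concentration for 50% growth inhibition is given as GI50.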 Calls of active or inactive are those of the source. No stated cut-off is given here; in the data, active = GI50 up to about 1.1 µM and inactive = higher. Where only a bound is given, the exact number is not on record here.

`NS(=O)(=O)c1ccc(Nc2c3ccccc3nc3c(C(=O)N4CCN(CCO)CC4)cccc23)cc1`: the GI50 in the experiment with 786-0 is > 100 µM (inactive); in the experiment with CAKI-1 it was > 100 µM (inactive); in the experiment on SF-539, > 100 µM (inactive); in the experiment with SN12C it was > 100 µM (inactive); with SNB-78, 69.3 µM (inactive); in the experiment with LOX IMVI, 92.7 µM (inactive). Besides, the GI50 is 40.2 µM (inactive) with MOLT-4; > 100 µM (inactive) in the experiment with Malme-3M; > 100 µM (inactive) with SF-268; > 100 µM (inactive) in the experiment on NCI-H226; > 100 µM (inactive) in the experiment on TK-10; 29.2 µM (inactive) in the experiment with HL-60. Besides, the GI50 with EKVX, in the experiment with SK-MEL-2, with A549 and in the experiment on IGROV-1 was > 100 µM (inactive) in each case.

With `C=C(C)C1Cc2c(cc(OC)c3c(=O)c4ccccc4n(C)c23)O1` (stereo unspecified), the GI50 in the experiment on 786-0, in the experiment with CAKI-1, in the experiment on RPMI-8226, in the experiment on SF-539, with SN12C and in the experiment with SNB-78 was > 100 µM (inactive) each time. The GI50 with LOX IMVI was 47.3 µM (inactive); with Malme-3M it was > 100 µM (inactive); in the experiment with SF-268, > 100 µM (inactive); in the experiment with NCI-H226, > 100 µM (inactive); in the experiment on TK-10, > 100 µM (inactive); in the experiment on HL-60 it was > 100 µM (inactive). Also, the GI50 in the experiment with EKVX, in the experiment with SK-MEL-2, with A549 and in the experiment on IGROV-1 was > 100 µM (inactive) each time.

As for `C=C1C(=O)OC2/C=C(\C)C3OC3/C=C(/C(=O)OC)C(OC(C)=O)C(OC(=O)C(C)(O)C(C)OC(C)=O)C12` (stereo unspecified), the GI50 in the experiment with 786-0 is 2.22 µM (inactive); in the experiment with CAKI-1 it was 4.36 µM (inactive); in the experiment with RPMI-8226 it was 0.92 µM (active); in the experiment with SF-539 it was 2.11 µM (inactive); with Hs-578T it was 6.21 µM (inactive); with SN12C, 2.67 µM (inactive). Further, the GI50 is 2.53 µM (inactive) with SNB-78; 1.53 µM (inactive) in the experiment with LOX IMVI; 0.647 µM (active) with MOLT-4; 2.14 µM (inactive) in the experiment with Malme-3M; 5.55 µM (inactive) with SF-268; 6.89 µM (inactive) in the experiment on NCI-H226. The GI50 in the experiment with TK-10 was 1.83 µM (inactive); in the experiment on HL-60 it was 0.308 µM (active); in the experiment on EKVX, 10.5 µM (inactive); in the experiment on SK-MEL-2 it was 4.59 µM (inactive); in the experiment on MDA-N, 2.69 µM (inactive); in the experiment with A549, 14.6 µM (inactive). Moreover, the GI50 in the experiment with IGROV-1 was 1.98 µM (inactive).

For `O=C(/C=C/c1ccc(O)cc1)c1ccc(O)cc1` [4,4'-DIHYDROXYCHALCONE], the GI50 is 23.2 µM (inactive) with 786-0; 18.1 µM (inactive) in the experiment on CAKI-1; 11.2 µM (inactive) in the experiment on RPMI-8226; 21.1 µM (inactive) with SF-539; 27 µM (inactive) in the experiment on Hs-578T; 31.2 µM (inactive) with SN12C. Also, the GI50 in the experiment with NCI/ADR-RES is 21.6 µM (inactive); in the experiment with SNB-78, 45.2 µM (inactive); with LOX IMVI, 11.4 µM (inactive); in the experiment with MOLT-4, 19.3 µM (inactive); in the experiment on Malme-3M, 27.7 µM (inactive); with SF-268 it was 21.4 µM (inactive). The GI50 was 16.8 µM (inactive) with NCI-H226; 46.9 µM (inactive) in the experiment with TK-10; 17 µM (inactive) in the experiment on HL-60; 42.3 µM (inactive) with EKVX; 19.6 µM (inactive) with SK-MEL-2; 27.4 µM (inactive) with MDA-N. Besides, the GI50 in the experiment with A549 was 30.5 µM (inactive); in the experiment on IGROV-1 it was 32.1 µM (inactive).

`O=C1[C@H]2ON(c3ccccc3)C(c3ccc(Cl)cc3Cl)[C@H]2C(=O)N1c1ccc(Cc2ccc(N3C(=O)[C@@H]4ON(c5ccccc5)C(c5ccc(Cl)cc5Cl)[C@@H]4C3=O)cc2)cc1` (stereo partly specified): the GI50 with 786-0, with CAKI-1, in the experiment on RPMI-8226, with SF-539, in the experiment on SN12C and in the experiment on SNB-78 was > 100 µM (inactive) each time. The GI50 in the experiment with LOX IMVI was > 100 µM (inactive); in the experiment on MOLT-4, > 100 µM (inactive); in the experiment with Malme-3M, 96.8 µM (inactive); in the experiment on SF-268 it was > 100 µM (inactive); in the experiment with NCI-H226, > 100 µM (inactive); in the experiment with TK-10, > 100 µM (inactive). Moreover, the GI50 in the experiment with HL-60, in the experiment with EKVX, in the experiment with SK-MEL-2, in the experiment with A549 and with IGROV-1 was > 100 µM (inactive) each time.

In the case of `COc1cccc2c1C1(O)C2CCCCCCCCCC12OCCCO2` (stereo unspecified), the GI50 in the experiment with 786-0 is 32.7 µM (inactive); with CAKI-1, > 100 µM (inactive); in the experiment with RPMI-8226, 7.29 µM (inactive); in the experiment on SF-539, 8.38 µM (inactive); in the experiment on Hs-578T, > 100 µM (inactive); with SN12C, > 49.7 µM (inactive). Further, the GI50 in the experiment on NCI/ADR-RES was > 100 µM (inactive); in the experiment on SNB-78 it was > 100 µM (inactive); with LOX IMVI it was 10.5 µM (inactive); in the experiment with MOLT-4 it was 6.3 µM (inactive); in the experiment on Malme-3M, > 47 µM (inactive); with SF-268, 9.82 µM (inactive). For the same molecule, the GI50 with NCI-H226 is > 47.9 µM (inactive); in the experiment on TK-10, 49.7 µM (inactive); in the experiment on HL-60, 5.66 µM (inactive); in the experiment with SK-MEL-2 it was > 40.5 µM (inactive); in the experiment with MDA-N, 35.2 µM (inactive); in the experiment on A549, > 34.5 µM (inactive). Besides, the GI50 in the experiment on IGROV-1 was 41.3 µM (inactive).

On to `O=C1CCCCC1S(=O)(=O)c1ccccc1` (stereo unspecified), for which the GI50 in the experiment on 786-0, in the experiment with CAKI-1, with RPMI-8226, with SF-539, in the experiment on SN12C and in the experiment on SNB-78 was > 100 µM (inactive) each time. The GI50 in the experiment on LOX IMVI, in the experiment on MOLT-4, in the experiment with Malme-3M, in the experiment on SF-268, with NCI-H226 and in the experiment on TK-10 was > 100 µM (inactive) in each case. For the same molecule, the GI50 in the experiment on HL-60, in the experiment on EKVX, with SK-MEL-2, in the experiment on A549 and in the experiment on IGROV-1 was > 100 µM (inactive) each time.

As to `C/C(=N\N=C(N)N)c1sc(-c2nc(C)c(/C(C)=N/N=C(N)N)s2)nc1C`, the GI50 is > 47.9 µM (inactive) in the experiment on 786-0; > 100 µM (inactive) in the experiment on CAKI-1; 39.3 µM (inactive) in the experiment on RPMI-8226; > 100 µM (inactive) in the experiment with SF-539; > 100 µM (inactive) in the experiment with SN12C; > 100 µM (inactive) with SNB-78. In addition, the GI50 in the experiment on LOX IMVI is > 42.5 µM (inactive); in the experiment on MOLT-4 it was > 57.9 µM (inactive); in the experiment on Malme-3M, > 100 µM (inactive); in the experiment on SF-268 it was > 100 µM (inactive); in the experiment on NCI-H226, > 100 µM (inactive); in the experiment on TK-10 it was > 100 µM (inactive). The GI50 is 24.4 µM (inactive) with HL-60; > 100 µM (inactive) in the experiment on EKVX; > 100 µM (inactive) in the experiment with SK-MEL-2; > 100 µM (inactive) in the experiment with A549; > 100 µM (inactive) in the experiment on IGROV-1.

The values above are taken from ChEMBL document CHEMBL1201862, “PubChem BioAssay data set” (2004).
